Measurements published in patent publication US12474342B2, “Methods for treating cancer and the use of biomarkers as a predictor of clinical sensitivity to therapies” (CELGENE CORPORATION, priority 2016, dated 2025).
Where two headings read alike, the source gives them in different places.

Columns and labels:
GSPT1 [1] = biological target: T1, GSPT1 (Homo sapiens, UniProt P15170+Q96SW2); assay: GSPT1 protein reduction, western analysis, KG-1; format: cell-based; set-up: reduction in GSPT1 protein level was evaluated in human normal PBMCs; endogenous in cells; host or cells: primary PBMCs from normal donors (ID 4328, 4379) and AML patients (ID 11SH, 09P6)
Experimental: Cells were treated with DMSO alone, 200 nM Compound D, or 200 nM Compound E. After 8 or 12 hours, the expression levels of various cellular components along UPR or apoptosis pathways were measured. […] Reduction of BIP indicates UPR.
To further investigate the timeline of cellular events upon Compound D treatment, KG1 cells were treated with DMSO alone or 200 nM Compound D. At 2, 4, 6, 8, 10, or 12 hours, the expression levels of various cellular components along ATF4 or apoptosis pathways were measured.
In two sensitive AML cell lines, KG-1 and HL-60, both a concentration-dependent decrease in GSPT1 protein and an increase in RNA expression of ATF3, CHOP, and SRSF3 and SRSF6 NMD transcripts at the 8-hour time point were compared to caspase 3/7 activation (apoptosis) at the 24-hour (FIG. 30A [KG-1]; FIG. 30C [HL-60]) and 48-hour (FIG. 30B [KG-1]; FIG. 30D [HL-60]) time points.
The reduction in the level of GSPT1 protein was concentration-dependent over the range of 3 to 1000 nM in eight of the nine AML cell lines and over the range of 300 to 1000 nM in one relatively insensitive AML cell line. The time course of the reduction in GSPT1 by Compound D also was studied for up to 48 hours. The progressive degradation of GSPT1 over the course of 1 to 20 hours was evident in the presence of all concentrations of Compound D studied from 3 to 300 nM in HNT-34, HL-60, and ML-2 cells, with little GSPT1 remaining by 20 hours at 100 or 300 nM Compound D in HNT-34 or HL-60 cells (FIG. 34 and FIG. 35C). Time-dependent reduction in GSPT1 was also observed in KG-1 and OCI-AML2 cells at 3 to 1000 nM Compound D, with little GSPT1 remaining in KG-1 cells at 100 to 300 nM at 24 hours or in OCI-AML2 cells at 300 and 1000 nM at 24 hours (FIG. 35D). Loss of GSPT1 occurred more slowly in Kasumi-1, AML-193, and F36-P cells.
Compound D-mediated GSPT1 reduction at 8 hours was compared to induction of caspase 3/7 activation (apoptosis) at 12, 24, and 48 hour time points in these nine AML cell lines. […] A positive association (r^2=0.50; R=0.71; p value=4.86E-002) was observed between the level of GSPT1 reduction and apoptosis induction in the AML cell panel (FIG. 36), with >90% GSPT1 reduction correlating with induction of apoptosis.

OCI-AML2 cells = assay: Apoptosis (caspase 3/7 activation), OCI-AML2; format: cell-based, human; details: for EC50: Homo sapiens, read-out: Compound D-induced Apoptosis EC50
HL-60 cells [2] = assay: Anti-proliferation 72-hour CTG assay, HL-60; format: cell-based; details: Homo sapiens; HL-60, 72-hour CTG assay; read-out: IC50 of the anti-proliferative effect
Experimental: (§1) A plethora of AML cell lines were treated with serial dilutions of Compound D. IC50 value of the anti-proliferation effect of Compound D (as determined in 72-hour CTG assays) in each cell line is summarized in Table 1.

GSPT1 [3] = biological target: T1, GSPT1; assay: GSPT1 degradation in NB4 cell line; format: cell-based; set-up: endogenous in cells; details: NB4 cell line
AML-193 cells = assay: Apoptosis (caspase 3/7 activation), AML-193; format: cell-based, human; details: for EC50: Homo sapiens, read-out: Compound D-induced Apoptosis EC50
[4] = system: translational readthrough; assay: AML2 readthrough assay (Fluc/Nluc-G36A reporter), OCI-AML2; format: cell-based, human; details: 300 μg/ml G418 or 200 nM Compound D
Experimental: It is known that amino acid starvation causes GCN2 activation, which phosphorylates eIF2α. Because GSPT1 mediates normal translation termination, it is hypothesized that depletion of GSPT1 by Compound D may cause readthrough of stop codons. Whether the translational readthrough induced by Compound D contributes to the increased levels of p-eIF2α was investigated. OCI-AML2 cells stably expressing the Fluc/Nluc-G36A readthrough reporter were treated with 300 μg/ml G418 or 200 nM Compound D for 2, 4, 6, 8, 10, 12, or 16 hours. The levels of p-eIF2α were measured by immunoblot analysis. AML2 readthrough assay was conducted to measure the readthrough reporter.

HL-60 cells [5] = assay: Apoptosis (caspase 3/7 activation), HL-60; format: cell-based, human; details: for EC50: Homo sapiens, read-out: Compound D-induced Apoptosis EC50
MV-4-11 cells = assay: Anti-proliferation 72-hour CTG assay, MV-4-11; format: cell-based; details: Homo sapiens, MV4-11; MV-4-11, 72-hour CTG assay; read-out: IC50 of the anti-proliferative effect
Experimental: as §1

OCI-AML3 cells = assay: Apoptosis (caspase 3/7 activation), OCI-AML3; format: cell-based, human; details: OCI-AML3, 123 nM
GSPT1 [6] = biological target: T1, GSPT1; assay: GSPT1 degradation, western blot, MOLM-13; format: cell-based; set-up: endogenous in cells; details: 100 nM
Source text: Thus, Compound D-induced GSPT1 degradation is also CRBN-dependent.

T1 sequence (P15170 1-637 isoform P15170-3): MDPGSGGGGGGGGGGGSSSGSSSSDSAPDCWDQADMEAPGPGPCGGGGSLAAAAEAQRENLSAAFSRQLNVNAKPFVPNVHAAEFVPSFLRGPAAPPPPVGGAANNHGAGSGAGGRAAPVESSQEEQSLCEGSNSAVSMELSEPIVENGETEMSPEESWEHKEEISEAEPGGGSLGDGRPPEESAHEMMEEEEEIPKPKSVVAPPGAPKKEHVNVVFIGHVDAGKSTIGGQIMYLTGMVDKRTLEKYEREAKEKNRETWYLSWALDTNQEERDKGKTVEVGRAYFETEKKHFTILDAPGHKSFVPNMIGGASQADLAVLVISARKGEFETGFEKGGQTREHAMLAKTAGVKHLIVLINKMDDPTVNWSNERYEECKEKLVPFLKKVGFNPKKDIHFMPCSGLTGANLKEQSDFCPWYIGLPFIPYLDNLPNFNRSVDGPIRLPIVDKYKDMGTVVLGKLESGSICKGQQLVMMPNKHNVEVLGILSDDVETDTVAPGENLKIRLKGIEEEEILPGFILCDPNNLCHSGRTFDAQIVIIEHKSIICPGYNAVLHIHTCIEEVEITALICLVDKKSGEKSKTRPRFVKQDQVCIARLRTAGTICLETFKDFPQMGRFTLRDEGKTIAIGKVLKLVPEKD
T1 sequence (Q96SW2 whole entry): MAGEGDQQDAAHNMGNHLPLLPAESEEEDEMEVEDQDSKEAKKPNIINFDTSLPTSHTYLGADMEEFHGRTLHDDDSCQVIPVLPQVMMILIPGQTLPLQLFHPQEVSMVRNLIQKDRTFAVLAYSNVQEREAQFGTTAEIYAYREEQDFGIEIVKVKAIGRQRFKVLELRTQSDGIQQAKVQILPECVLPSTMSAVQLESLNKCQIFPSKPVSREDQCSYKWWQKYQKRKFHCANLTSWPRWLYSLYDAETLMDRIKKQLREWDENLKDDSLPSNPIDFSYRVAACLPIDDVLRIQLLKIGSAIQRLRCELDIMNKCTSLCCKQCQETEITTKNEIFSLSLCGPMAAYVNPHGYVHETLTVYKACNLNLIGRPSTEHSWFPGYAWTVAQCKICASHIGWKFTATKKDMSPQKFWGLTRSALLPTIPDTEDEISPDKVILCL
T1 sequence (Q16531 whole entry partner): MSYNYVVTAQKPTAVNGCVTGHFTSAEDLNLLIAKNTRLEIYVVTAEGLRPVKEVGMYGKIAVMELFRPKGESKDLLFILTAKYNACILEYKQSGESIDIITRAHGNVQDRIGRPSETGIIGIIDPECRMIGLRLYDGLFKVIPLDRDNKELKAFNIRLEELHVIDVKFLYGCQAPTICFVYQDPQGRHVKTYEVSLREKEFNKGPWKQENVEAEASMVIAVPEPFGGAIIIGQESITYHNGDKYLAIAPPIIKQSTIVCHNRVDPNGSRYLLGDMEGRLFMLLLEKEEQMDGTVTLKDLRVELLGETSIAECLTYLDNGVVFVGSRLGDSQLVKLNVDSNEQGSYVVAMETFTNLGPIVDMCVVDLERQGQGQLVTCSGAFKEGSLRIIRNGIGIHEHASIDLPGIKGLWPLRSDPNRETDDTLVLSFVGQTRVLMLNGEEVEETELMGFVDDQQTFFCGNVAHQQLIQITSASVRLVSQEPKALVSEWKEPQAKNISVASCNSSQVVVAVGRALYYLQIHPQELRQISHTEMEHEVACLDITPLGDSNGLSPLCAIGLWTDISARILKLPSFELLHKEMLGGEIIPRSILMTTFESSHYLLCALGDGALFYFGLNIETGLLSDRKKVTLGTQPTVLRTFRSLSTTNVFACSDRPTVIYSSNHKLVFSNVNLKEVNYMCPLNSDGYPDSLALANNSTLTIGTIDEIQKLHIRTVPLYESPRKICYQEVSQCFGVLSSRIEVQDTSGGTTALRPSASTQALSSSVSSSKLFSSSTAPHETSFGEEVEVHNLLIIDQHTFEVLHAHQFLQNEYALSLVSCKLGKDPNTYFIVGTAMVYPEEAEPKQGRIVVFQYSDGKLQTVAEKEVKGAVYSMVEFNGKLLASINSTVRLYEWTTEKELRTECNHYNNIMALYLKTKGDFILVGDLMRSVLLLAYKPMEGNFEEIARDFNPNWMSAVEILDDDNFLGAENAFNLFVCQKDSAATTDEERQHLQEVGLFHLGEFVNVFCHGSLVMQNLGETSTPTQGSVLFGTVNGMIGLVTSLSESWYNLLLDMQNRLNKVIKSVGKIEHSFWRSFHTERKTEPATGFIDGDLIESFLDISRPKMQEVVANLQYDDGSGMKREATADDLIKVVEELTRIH

In the case of O=C1CCC(N2Cc3cc(CNC(=O)C(F)(F)c4ccc(Cl)cc4)ccc3C2=O)C(=O)N1 (centres unmarked) [Compound D, 2-(4-chlorophenyl)-N-((2-(2,6-dioxopiperidin-3-yl)-1-oxoisoindolin-5-yl)methyl)-2,2-difluoroacetamide], the “time of GSPT1 degradation” value (GSPT1 [1]; KG1, 200 nM) is reported as at most 2 h, the “degradation of GSPT1” value (GSPT1 [1]; KG1, 200 nM, 8 or 12 hours) is reported as “induced degradation” and the “reduction of GSPT1 protein levels” value (GSPT1 [1]; KG-1, 100 nM Compound D, 4 hours) is reported as “greater than 800”. The “reduction of GSPT1 protein levels” value (GSPT1 [1]; KG-1, 100 nM or greater, 8-hour time point) was over 90%, the EC50 (OCI-AML2 cells; OCI-AML2, 48 hr) was 81 nM and the EC50 (OCI-AML2 cells; OCI-AML2, 72 hr) was 41 nM. For the same compound, the EC50 (OCI-AML2 cells; OCI-AML2, 96 hr) was 38 nM, the “Average Percent Increase in Apoptosis at 123 nM Compound D, Apoptosis (12 hr)” value (from here on “Average Percent Increase in Apoptosis … (12 hr)”) (OCI-AML2 cells; OCI-AML2, 123 nM, 12 hr) was 0% and the “Average Percent Increase in Apoptosis at 123 nM Compound D, Apoptosis (24 hr)” value (“Average Percent Increase in Apoptosis … (24 hr)” for short) (OCI-AML2 cells; OCI-AML2, 123 nM, 24 hr) was 3%. For the same compound, the “Average Percent Increase in Apoptosis at 123 nM Compound D, Apoptosis (48 hr)” value (“Average Percent Increase in Apoptosis … (48 hr)” for short) (OCI-AML2 cells; OCI-AML2, 123 nM, 48 hr) was 33%, the IC50 (HL-60 cells [2]) was 20 nM and the “effect on GSPT1 level” value (GSPT1 [3]) was “induced degradation”. The “Average Percent Increase in Apoptosis … (12 hr)” value (AML-193 cells; AML-193, 123 nM, 12 hr) was 0%, the “Average Percent Increase in Apoptosis … (24 hr)” value (AML-193 cells; AML-193, 123 nM, 24 hr) was 5% and the “Average Percent Increase in Apoptosis … (48 hr)” value (AML-193 cells; AML-193, 123 nM, 48 hr) was 40%. The EC50 (AML-193 cells; AML-193, 48 hr) was 89 nM, the EC50 (AML-193 cells; AML-193, 72 hr) was 47 nM and the EC50 (AML-193 cells; AML-193, 96 hr) was 60 nM. For the same compound, the translational readthrough [4] was “induced translational readthrough at a comparable level”, the “average percent increase in apoptosis” value (HL-60 cells [5]; HL-60, 41 nM, 24 hour time-point) was 9% and the “Average Percent Increase in Apoptosis … (12 hr)” value (HL-60 cells [5]; HL-60, 123 nM, 12 hr) was 1%. The “Average Percent Increase in Apoptosis … (24 hr)” value (HL-60 cells [5]; HL-60, 123 nM, 24 hr) was 19%, the “Average Percent Increase in Apoptosis … (48 hr)” value (HL-60 cells [5]; HL-60, 123 nM, 48 hr) was 62% and the EC50 (HL-60 cells [5]; HL-60, 24 hr) was 73 nM. The EC50 (HL-60 cells [5]; HL-60, 48 hr) was 15 nM, the EC50 (HL-60 cells [5]; HL-60, 72 hr) was 8 nM and the IC50 (MV-4-11 cells) was 29 nM. The “Average Percent Increase in Apoptosis … (12 hr)” value (OCI-AML3 cells; 12 hr) was 0%, the “Average Percent Increase in Apoptosis … (24 hr)” value (OCI-AML3 cells; 24 hr) was 1% and the “Average Percent Increase in Apoptosis … (48 hr)” value (OCI-AML3 cells; 48 hr) was 2%. The “degradation of GSPT1” value (GSPT1 [6]; CRBN -/- MOLM-13 cells) was “could not induce degradation” and the “degradation of GSPT1” value (GSPT1 [6]; parental MOLM-13 cells) was “induced degradation”.
